# Like-named read-outs stand apart in the source and are kept apart here.
# Assays:
# [1] = tested on: L1210 cells; assay type: in vivo; details: day 1-10; for ILS(%) increase of life span: L1210 mice
# Experimental: (§1) L1210 cells on the growth phase were injected at 1×10^5 cells via I.P. into BDF1 female mice (weight approximately 20 g). The next day of implantation, mice were grouped, and received an injection of 0.1 ml/10 g weight of the drug. […] The number of mice of each group was 10. Mice were weighed before and after the treatment. Survival time of each mouse was recorded. The results of changes in increasing of life span of mice were used in assessment of response. The increase of life span was determined as; increase of life span rate=(median survival time of treated animals/median survival time of control animals−1)×100%, the data were analyzed by t-test.
# [2] = tested on: Murine melanoma cell line B 16; test: Solid tumor transplant model, baicalein and baicalin; assay type: in vivo
# Experimental: (§2) C57BL/6 female mice (weight approximately 20 g) were used in this study. Murine melanoma cell line B 16 cells, 2×10^6 tumor cells were implanted s.c. into the armpit of each mice after two passenges in vitro cultured. On the next day after implantation, mice were randomly grouped at 10 per group and received 0.1 ml/10 g weight of the drugs. […] The number of mice of each group was 10. Mice were weighed before and post the treatment. Animals were killed on day 15, and the tumors were removed and weighted.
# [3] = tested on: L1210 cells; assay type: in vivo; details: 5-FU 10 mg/kg s.c., day 1-10
# Experimental: as §1
# [4] = tested on: Murine melanoma cell line B 16; test: Solid tumor transplant model, baicalein and scutellarin; assay type: in vivo, C57BL/6 female mice; details: for Final Tumor WT. (g) Mean ± SD / Tumor Growth Inhibition %: day 15
# Experimental: as §2, with “0.1ml/10” for “0.1 ml/10”
# [5] = tested on: Human leukemia cell line HL60; test: MTT growth inhibition, baicalein and scutellarin single or combination; assay type: cell-based
# [6] = tested on: human liver cancer cell line HepG2; test: as above; assay type: cell-based
# [7] = tested on: Human gastric cancer cell line MKN28; test: as above; assay type: cell-based
# [8] = tested on: Human hung cancer cell line A549; test: as above; assay type: cell-based
# [9] = tested on: Human colon cancer cell line HCT116; test: as above; assay type: cell-based
# [10] = tested on: Human breast cancer cell line MCF-7; test: as above; assay type: cell-based
# Experimental: (§3) Cells were seeded onto 96-well plate at 5×10^3 cells/well, and grown in culture medium containing 10% fetal bovine serum (FBS). […] The viable cell growth was determined by MTT assay after 72-h continuous exposure.
# (§4) A CI below 1 is an indication of synergy, while a CI equal to 1 represents addition, and a CI above 1 indicates antagonism.
# [11] = tested on: Human esophagus cancer cell line TE2; test: as above; assay type: cell-based
# Experimental: as §3, §4
# [12] = tested on: Human prostate cancer cell line PC3; test: as above; assay type: cell-based
# Experimental: as §3, §4
# [13] = B16 mice, day 15, 5-FU 10 mg/kg s.c., day 1-10
# [14] = B16 mice, 5-FU 10 mg/kg s.c., day 1-10
# [15] = female, C57BL/6, mouse, in vivo, 15 days
# [16] = B16 mice, Sc 25 mg/kg i.p., day 1-10
# [17] = B16 mice, Sc 50 mg/kg i.p., day 1-10
# [18] = B16 mice, Sc 100 mg/kg i.p., day 1-10
# [19] = B16 mice, Sc 200 mg/kg i.p., day 1-10
structure (smiles),measurement,setting,value
"O=c1[nH]cc(F)c(=O)[nH]1 [5-FU, 5-fluorouracil, reference compound]",Number of mice Through surviving 15 days/total number,[1]; 5-FU 10 mg/kg s.c.,10/10
same,ILS(%) increase of life span,[1]; 5-FU 10 mg/kg s.c.,79%
same,Final Tumor WT. (g) Mean ± SD,[2]; [13],1.35 ± 0.1 g
same,Tumor Growth Inhibition %,[2]; [13],38%
same,Weight Change %,[2]; [14],<5%
same,Number of mice Surviving through 15 days/total number,[2]; [15],10/10
same,Number of mice Surviving through 15 days/total number,[3],10/10
same,ILS(%) increase of life span,[3]; L1210 mice,79%
same,Final Tumor WT. (g) Mean ± SD,[4]; [14],1.35 ± 0.1 g
same,Tumor Growth Inhibition %,[4]; [14],38%
same,Number of mice through 15 days/total number,[4]; [15],10/10
"O=C(O)[C@H]1O[C@@H](Oc2cc3oc(-c4ccc(O)cc4)cc(=O)c3c(O)c2O)[C@H](O)[C@@H](O)[C@@H]1O [Sc, scutellarin]",ILS(%) increase of life span,[1]; Sc 25 mg/kg i.p.,11.9%
same,ILS(%) increase of life span,[1]; Sc 50 mg/kg i.p.,26%
same,ILS(%) increase of life span,[1]; Sc 100 mg/kg i.p.,37%
same,ILS(%) increase of life span,[1]; Sc 200 mg/kg i.p.,51%
same,Number of mice Through surviving 15 days/total number,[1]; Sc 25 mg/kg i.p.,10/10
same,Number of mice Through surviving 15 days/total number,[1]; Sc 50 mg/kg i.p.,10/10
same,Number of mice Through surviving 15 days/total number,[1]; Sc 100 mg/kg i.p.,10/10
same,Number of mice Through surviving 15 days/total number,[1]; Sc 200 mg/kg i.p.,10/10
same,Inhibition of cell growth (%),[5]; single dose 2.5 μm,2.25 ± 2.7%
same,Inhibition of cell growth (%),[5]; single dose 5 μm,8.64 ± 3.2%
same,Inhibition of cell growth (%),[5]; single dose 10 μm,37 ± 2.2%
same,Inhibition of cell growth (%),[5]; single dose 20 μm,64.2 ± 2.7%
same,Inhibition of cell growth (%),[5]; single dose 40 μm,88.5 ± 2.5%
same,Inhibition of cell growth (%),[6]; single dose 2.5 μm,5.2 ± 2.1%
same,Inhibition of cell growth (%),[6]; single dose 5 μm,7.7 ± 2.3%
same,Inhibition of cell growth (%),[6]; single dose 10 μm,43.35 ± 2.7%
same,Inhibition of cell growth (%),[6]; single dose 20 μm,86.1 ± 2.9%
same,Inhibition of cell growth (%),[6]; single dose 40 μm,88.45 ± 2.5%
same,Inhibition of cell growth (%),[7]; single dose 2.5 μm,18.83 ± 2.2%
same,Inhibition of cell growth (%),[7]; single dose 5 μm,21.23 ± 3.5%
same,Inhibition of cell growth (%),[7]; single dose 10 μm,31.65 ± 2.8%
same,Inhibition of cell growth (%),[7]; single dose 20 μm,35.34 ± 2.8%
same,Inhibition of cell growth (%),[7]; single dose 40 μm,75.34 ± 2.7%
same,Inhibition of cell growth (%),[8]; single dose 2.5 μm,1 ± 2.1%
same,Inhibition of cell growth (%),[8]; single dose 5 μm,7.7 ± 3.3%
same,Inhibition of cell growth (%),[8]; single dose 10 μm,32.33 ± 2.7%
same,Inhibition of cell growth (%),[8]; single dose 20 μm,62.65 ± 2.5%
same,Inhibition of cell growth (%),[8]; single dose 40 μm,91 ± 2.7%
same,Final Tumor WT. (g) Mean ± SD,[4]; [16],1.81 ± 0.11 g
same,Tumor Growth Inhibition %,[4]; [16],17%
same,Final Tumor WT. (g) Mean ± SD,[4]; [17],1.72 ± 0.08 g
same,Tumor Growth Inhibition %,[4]; [17],21.1%
same,Final Tumor WT. (g) Mean ± SD,[4]; [18],1.48 ± 0.12 g
same,Tumor Growth Inhibition %,[4]; [18],32.1%
same,Final Tumor WT. (g) Mean ± SD,[4]; [19],1.22 ± 0.09 g
same,Tumor Growth Inhibition %,[4]; [19],44%
same,Number of mice through 15 days/total number,[4]; [16],10/10
same,Weight Change %,[4]; [16],<5%
same,Number of mice through 15 days/total number,[4]; [17],10/10
same,Weight Change %,[4]; [17],<5%
same,Number of mice through 15 days/total number,[4]; [18],10/10
same,Weight Change %,[4]; [18],<5%
same,Number of mice through 15 days/total number,[4]; [19],10/10
same,Weight Change %,[4]; [19],<5%
same,Inhibition of cell growth (%),[9]; single dose 2.5 μm,10.05 ± 2.5%
same,Inhibition of cell growth (%),[9]; single dose 5 μm,15.1 ± 3%
same,Inhibition of cell growth (%),[9]; single dose 10 μm,49 ± 2.2%
same,Inhibition of cell growth (%),[9]; single dose 20 μm,83.7 ± 2.2%
same,Inhibition of cell growth (%),[9]; single dose 40 μm,95 ± 2.8%
same,Inhibition of cell growth (%),[10]; single dose 2.5 μm,5 ± 2.5%
same,Inhibition of cell growth (%),[10]; single dose 5 μm,20.71 ± 3.2%
same,Inhibition of cell growth (%),[10]; single dose 10 μm,71 ± 2.2%
same,Inhibition of cell growth (%),[10]; single dose 20 μm,87.5 ± 2.5%
same,Inhibition of cell growth (%),[10]; single dose 40 μm,95.57 ± 2.2%
same,Inhibition of cell growth (%),[11]; single dose 2.5 μm,4.7 ± 2.2%
same,Inhibition of cell growth (%),[11]; single dose 5 μm,12.97 ± 3.1%
same,Inhibition of cell growth (%),[11]; single dose 10 μm,27.1 ± 2.7%
same,Inhibition of cell growth (%),[11]; single dose 20 μm,66 ± 2.9%
same,Inhibition of cell growth (%),[11]; single dose 40 μm,84.62 ± 2.5%
same,Inhibition of cell growth (%),[12]; single dose 2.5 μm,2 ± 5%
same,Inhibition of cell growth (%),[12]; single dose 5 μm,18 ± 3%
same,Inhibition of cell growth (%),[12]; single dose 10 μm,39 ± 7%
same,Inhibition of cell growth (%),[12]; single dose 20 μm,72 ± 9%
same,Inhibition of cell growth (%),[12]; single dose 40 μm,91.8 ± 5%
